# Several values for one entry are separate records, joined by “and”; a condition that tells them apart may be missing. Equal values may be shown once.
# Assays:
# [1] = biological target: T1, human liver-X-receptor LXRα (Homo sapiens, UniProt Q13133); assay: LXRE-luciferase gene reporter assay in HEK293T, LXRα; type: cell-based; conditions: LXRα; 10 µM 22(R)HC; read-out: IC50, inhibition of LXR-dependent luciferase activity stimulated by 22(R)HC
# T1 construct: expressed in transfected cells; host or cells: HEK293T
# T1 sequence (Q13133 1-447): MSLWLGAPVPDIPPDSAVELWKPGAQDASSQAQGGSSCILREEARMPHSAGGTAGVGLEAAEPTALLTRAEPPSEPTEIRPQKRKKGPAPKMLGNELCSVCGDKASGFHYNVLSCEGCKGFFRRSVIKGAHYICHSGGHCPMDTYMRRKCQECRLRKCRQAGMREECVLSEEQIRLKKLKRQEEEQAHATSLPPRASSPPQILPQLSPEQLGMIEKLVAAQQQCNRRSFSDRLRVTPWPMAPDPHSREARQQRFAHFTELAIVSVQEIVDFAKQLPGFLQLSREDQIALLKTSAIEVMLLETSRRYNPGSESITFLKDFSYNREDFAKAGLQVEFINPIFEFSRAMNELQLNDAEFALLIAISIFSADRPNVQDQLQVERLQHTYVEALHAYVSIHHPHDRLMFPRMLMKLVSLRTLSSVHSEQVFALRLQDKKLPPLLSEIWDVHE
# T1 sequence (P48443 1-463 partner): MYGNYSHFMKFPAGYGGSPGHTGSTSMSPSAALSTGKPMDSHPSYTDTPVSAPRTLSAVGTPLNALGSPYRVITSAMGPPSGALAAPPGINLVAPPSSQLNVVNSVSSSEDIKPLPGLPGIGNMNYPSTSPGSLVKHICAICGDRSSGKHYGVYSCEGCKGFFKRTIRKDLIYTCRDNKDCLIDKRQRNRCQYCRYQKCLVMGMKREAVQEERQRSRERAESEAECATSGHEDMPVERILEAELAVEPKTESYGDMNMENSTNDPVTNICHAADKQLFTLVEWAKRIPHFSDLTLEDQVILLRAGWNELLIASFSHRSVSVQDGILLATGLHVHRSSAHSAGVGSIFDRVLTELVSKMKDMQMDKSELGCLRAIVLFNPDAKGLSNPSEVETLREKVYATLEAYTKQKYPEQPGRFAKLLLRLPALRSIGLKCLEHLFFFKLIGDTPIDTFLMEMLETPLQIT
# From the text: HEK293T were used for luciferase assays. Cells were transfected using the PolyEthylenImine (PEI) method with human retinoid-X receptor (RXRγ) and human liver-X-receptors (LXRα or LXRβ) with LXRE-Luc; RXRγ and human farnesoid X receptor (FXR) with EcRE-Luc; RXRγ and human steroid and xenobiotic X receptor (SXR) with DR4-Luc; RXRγ and human peroxisome proliferator activated receptors (PPARα, or PPARγ) with PPRE-Luc; RXRγ and human retinoic acid receptor (RARα) with DR1-Luc; human AHR and human ARNT with a DRE-Luc; human vitamin D receptor (VDR) with VDRE-Luc. Cells were transfected with plasmids encoding human glucocorticoid receptor (GR), progesterone receptor (PR), or androgen receptor (AR) with MMTV-Luc; or estrogen receptors (ERα and ERβ) with an ERE-Luc. The day after transfection with the luciferase reporter gene construct, cells were seeded in 12-well plates (50,000 cells per well). After 6 h, cells were then treated with the following ligands dissolved in ethanol: 10 nM estradiol (E2) for ERα and ERβ; 10 nM R1881 for AR; 10 nM R5020 for PR; 10 nM dexamethasone for GR; 10 µM fenofibrate for PPARα; 100 nM rosiglitazone (BRL 49653) for PPARγ; 100 nM cis-retinoic acid (cRA) for RAR; 10 nM dioxine for AHR, 10 µM rifampicine for SXR and 10 µM 22(R) hydroxycholesterol (22(R)HC) for LXRα and LXRβ. At the end of each treatment, cells were lysed in 100 μl lysis buffer (Promega). Luciferase activity was measured using the luciferase assay reagent (Promega), according to the manufacturer’s instructions. Protein concentrations were measured using the Bradford method to normalize luciferase activities. For each condition, luciferase activity was calculated from the data of three independent wells.
# B16F10 cells = assay: Immunoblot densitometry (LC3-II); type: cell-based, mouse; conditions: 2.5 µM DDA, 24 h
# Method: Immunoblotting was carried out as described previously. Proteins were separated on SDS-PAGE gels, electro-transferred onto polyvinylidene difluoride membranes and incubated overnight at 4 °C with the following antibodies: anti-Atg3, anti-Atg5 (D1G9), anti-Atg7 (D12B11), anti-Beclin (D40C5), anti-caspase-3 (Cell Signaling), anti-Bcl-2 (Millipore), anti-Bax (Millipore), anti-LC3 (Sigma-Aldrich), anti-LXRα (SantaCruz), anti-LXRβ (SantaCruz), anti-Nur77 (Active motif), anti-NOR1 (R&D systems), anti-PARP (Cell Signaling), anti-Vps34 (Cell Signaling), or anti-Actin (Millipore). For visualization, an ECL plus kit (Amersham Biosciences) was used, and chemiluminescence was measured by autoradiography (Supplementary Fig. 9). Specific bands were quantified with ImageQuant software.
# HL60 cells = HL60 cells orthotopically engrafted (i.v.) into NSG mice; type: in vivo; conditions: for reduction of the number of HL60 cells in bone marrow and brain / reduction of HL60 cell viability in bone marrow and brain: 16 days; for reduction of HL60 cell viability in bone marrow and brain: Annexin-V
# Method: The engraftment of human primary AML cells was performed on NSG mice. Briefly, human primary AML cells, HL60 cells or normal CD34+ cells were resuspended in PBS, and 0.8 × 10^6 to 2 × 10^6 viable trypan blue-negative cells were injected intravenously into NSG mice that had been previously irradiated for 24 h with 2.25 Gy. […] The viability of AML cells was established by quantifying the percentage of hCD45+CD33+Annexin-V- cells.
compound,measurement,setting,value
"CC(C)CCC[C@@H](C)[C@H]1CC[C@H]2[C@@H]3C[C@@H](NCCc4cnc[nH]4)[C@@]4(O)C[C@@H](O)CC[C@]4(C)[C@H]3CC[C@]12C [DDA, Dendrogenin A]",IC50,[1],362 ± 52 nM
same,"LC3-II protein, densitometry",B16F10 cells; B16F10 siATG7,0.8
same,"LC3-II protein, densitometry",B16F10 cells; B16F10 siBECN1,1.3
same,"LC3-II protein, densitometry",B16F10 cells; B16F10 siNOR1 + siNur77,0.8
same,"LC3-II protein, densitometry",B16F10 cells; B16F10 siNOR1,0.8
same,"LC3-II protein, densitometry",B16F10 cells; B16F10 siNur77,1.1
same,"LC3-II protein, densitometry",B16F10 cells; B16F10 siSC,2.5 and 1.8 and 2.3
same,"LC3-II protein, densitometry",B16F10 cells; B16F10 siVPS34,1.9
same,reduction of the number of HL60 cells in bone marrow and brain,HL60 cells; 20 mg/kg/day i.p.,60.5 ± 11%
same,reduction of HL60 cell viability in bone marrow and brain,HL60 cells; 20 mg/kg/day i.p.,21.9 ± 6%
same,reduction of the number of HL60 cells in bone marrow and brain,HL60 cells; 40 mg/kg/day p.o.,47 ± 9%
same,reduction of HL60 cell viability in bone marrow and brain,HL60 cells; 40 mg/kg/day p.o.,17.3 ± 5%
same,overall survival of HL60-engrafted mice,"HL60 cells; 40 mg/kg/day p.o., after disease establishment",significantly improved the survival

# Source: article PMC5712521, “Dendrogenin A drives LXR to trigger lethal autophagy in cancers” (Nature Communications, 2017)
